Assay: Solution stability of ^90Y-B at −78° C., RCP by radio-HPLC
Type: physicochemical
Conditions: ^90Y-B prepared with GA; for RCP (%) t = 0 / RCP (%) t = 3 days / RCP (%) t = 7 days: degassed, second stabilizer (20 mg AA, 20 mg DSA, 10 mg 2,3,4-THBA, 10 mg HABA) added post-labeling; for RCP (%) change: second stabilizer added post-labeling, t = 0 to 7 days
Protocol: The integrity of a radiopharmaceutical is measured by the radiochemical purity (RCP) of the radiolabeled compound using ITLC or more preferably HPLC. The advantage of using HPLC is that radio-impurities caused by radiolytic degradation can be separated from the radiopharmaceutical under optimized chromatographic conditions. […] The radiopharmaceutical compositions of this invention are effective in maintaining the long-term stability of samples that have been frozen, thawed, and re-tested periodically for 7 days.
The initial RCP of a radiopharmaceutical is largely dependent on radiolabeling conditions such as pH, heating temperature and time. Once a radiopharmaceutical is prepared in high yield, the stability of the radiopharmaceutical composition is measured by the` RCP change of the radiopharmaceutical over a certain period of time. For comparison purposes, sodium gentisate or sodium ascorbate was often used as the reference since they have been used in various radiopharmaceutical formulations.
HPLC method 2 used a HP-1100 HPLC system with a UV/visible detector (λ=220 nm), an IN-US radio-detector, and a Zorbax C18 column (4.6 mm×250 mm, 80 Å pore size). The flow rate was 1 mL/min with a gradient mobile phase starting from 92% solvent A (0.025 M ammonium acetate buffer, pH 6.8) and 8% solvent B (acetonitrile) at 0 min to 90% solvent A and 10% solvent B at 18 min, followed by an isocratic wash using 40% of solvent A and 60% solvent B from 19 to 25 min.
The ITLC method used Gelman Sciences silica-gel ITLC paper strips and 1:1 mixture of acetone and saline as eluant. By this method, the radiolabeled compounds migrate to the solvent front while [^90Y]/^177Lu]colloid and [^90Y]/^177Lu]acetate remain at the origin. […]
The 0.5 M ammonium acetate buffer (pH 8.0) was first degassed under vacuum for 1-2 min. COMPOUND B and gentisic acid (sodium salt, GA) were dissolved in the degassed buffer to give a concentration of 100 μg/mL for COMPOUND B and 20 mg/mL for GA. The resulting solution was immediately degassed under vacuum for another 1-2 min. To a clean sealed 5 mL vial was added 1.0 mL of the degassed 0.5 M ammonium acetate buffer (pH 8.0) containing 100 μg COMPOUND B and 10 mg GA. The solution was degassed again under vacuum. Upon addition of ˜20 μL of ^90YCl3 solution (˜20 mCi) in 0.05 N HCl, the reaction mixture was heated at 100° C. for 5 min. After cooling to room temperature, a sample of the resulting solution was diluted 20-fold with saline containing gentisate (10 mg/mL), and was then analyzed by HPLC (Method 2, injection volume=1-2 μL) and ITLC. […] To the solution above was added 0.5 mL of sodium ascorbate solution (40 mg/mL in 0.5 M ammonium acetate buffer, pH=7.4). The resulting mixture was then kept in a dry-ice box (−78° C.) for 7 days. Samples were analyzed at t=0, 3 and 7 days.
The 0.5 M ammonium acetate buffer (pH 8.0) was first degassed under vacuum for 1-2 min. COMPOUND B and gentisic acid (sodium salt, GA) were dissolved in the degassed buffer to give a concentration of 100 μg/mL for COMPOUND B and 20 mg/mL for GA. The resulting solution was immediately degassed under vacuum for another 1-2 min. To a clean sealed 5 mL vial was added 1.0 mL of the degassed 0.5 M ammonium acetate buffer (pH 8.0) containing 100 μg COMPOUND B and 10 mg GA. The solution was degassed again under vacuum. Upon addition of ˜20 μL of ^90YCl3 solution (˜20 mCi) in 0.05 N HCl, the reaction mixture was heated at 100° C. for 5 min. After cooling to room temperature, a sample of the resulting solution was diluted 20-fold with saline containing gentisate (10 mg/mL), and was then analyzed by HPLC (Method 2, injection volume=1-2 μL) and ITLC. […] To the solution above was added 0.5 mL of 2,3,4-trihydroxybenzoic acid solution (20 mg/mL in 0.5 M ammonium acetate buffer, pH=6.5). The resulting mixture was then kept in a dry-ice box (−78° C.) for 7 days. Samples were analyzed at t=0, 3 and 7 days. […]

Compound | RCP (%) t = 0 [%] | RCP (%) t = 3 days [%] | RCP (%) t = 7 days [%] | RCP (%) change [%]
2,4-disulfonatobenzeneamine [DSA] | 94.4 | 94.8 | 94.5 | 0.1
O=C(O)c1ccc(O)c(O)c1O [2,3,4-THBA, 2,3,4-trihydroxybenzoic acid] | 94.2 | 93.6 | 93.9 | 0.3

Source: patent US20020122768A1, “Stable radiopharmaceutical compositions and methods for preparation thereof” (priority 2000, published 2002)
